The numbers were not newly measured in patent US12551454B2, “Isoproterenol compositions and methods” (Endo Operations Limited, priority 2020, dated 2026), which cites them from elsewhere.

For the series the following is noted: more potent than its (S)-enantiomer.

Take `CC(C)NC[C@H](O)c1ccc(O)c(O)c1` (single isomer, unassigned) [(R)-enantiomer of Isoproterenol]: the “potency relative to (S)-enantiomer” value was roughly 90 times.
